The values below come from ChEMBL document CHEMBL1147886, “Synthesis and pharmacological evaluation of novel conformationally constrained homologues of glutamic acid” (Eur J Med Chem, 2007).

Common to all, as to assay type: cell membranes
The nature of assay [1]: Displacement of [3H]KA from KA receptor in rat cortical membrane. A general note: Displacement assays read how much labelled ligand stays bound in the presence of the test substance.
The nature of assay [2]: Displacement of [3H]AMPA from AMPA receptor in rat cortical membrane.
Another assay deals with Glutamate NMDA receptor. In words: Displacement of [3H]CGP-39653 from NMDA receptor in rat cortical membrane.

Turning to `O=C(O)[C@@H]1C[C@@]2(CN1)CC(O)=NO2`, the IC50 in assay [1] and in assay [2] was greater than 100 µM throughout. Besides, the Ki (in general, a measure of affinity in units of concentration, obtained from inhibition or displacement) on Glutamate NMDA receptor was greater than 100 µM.
As to `O=C(O)[C@H]1C[C@]2(CN1)CC(O)=NO2`, the IC50 in assay [1] and in assay [2] was greater than 100 µM each time. This molecule displayed a Ki at Glutamate NMDA receptor greater than 100 µM.
As for `O=C(O)C1=NO[C@]2(CN[C@H](C(=O)O)C2)C1`, the IC50 in assay [1] and in assay [2] was greater than 100 µM in each case. Moreover, the Ki at Glutamate NMDA receptor was greater than 100 µM.
`O=C(O)C1=NO[C@]2(CN[C@@H](C(=O)O)C2)C1`: the IC50 in assay [1] and in assay [2] was greater than 100 µM throughout. In addition, at Glutamate NMDA receptor, the Ki was greater than 100 µM.
For the molecule `O=C(O)[C@@H]1C[C@]2(CN1)CC(O)=NO2`, the half-maximal inhibitory concentration (IC50) in assay [1] and in assay [2] was greater than 100 µM throughout. Also, the Ki on Glutamate NMDA receptor was greater than 100 µM.
Turning to `O=C(O)[C@H]1C[C@@]2(CN1)CC(O)=NO2`, the IC50 in assay [1] and in assay [2] was greater than 100 µM each time. At Glutamate NMDA receptor, this molecule yielded a Ki greater than 100 µM.
Consider `O=C(O)C1=NO[C@@]2(CN[C@H](C(=O)O)C2)C1`, for which the IC50 in assay [1] and in assay [2] was greater than 100 µM in each case. At Glutamate NMDA receptor, this molecule registered a Ki greater than 100 µM.
With `O=C(O)C1=NO[C@@]2(CN[C@@H](C(=O)O)C2)C1`, the IC50 in assay [1] and in assay [2] was greater than 100 µM each time. The Ki on Glutamate NMDA receptor was greater than 100 µM.
In the case of `N[C@@H](CCCP(=O)(O)O)C(=O)O`, the IC50 in assay [1] and in assay [2] was greater than 100 µM throughout.
As for `N[C@H](CCCP(=O)(O)O)C(=O)O`, the IC50 in assay [1] and in assay [2] was greater than 100 µM in each case.
For `N[C@H](C[C@H]1CC(C(=O)O)=NO1)C(=O)O` (racemic), the IC50 in assay [1] and in assay [2] was greater than 100 µM in each case.
Consider `N[C@]1(C(=O)O)C[C@H]1[C@H]1CC(C(=O)O)=NO1` (racemic), for which the IC50 in assay [1] and in assay [2] was greater than 100 µM each time. Also, on Glutamate NMDA receptor, the Ki is greater than 100 µM.
With `N[C@]1(C(=O)O)C[C@H]1[C@@H]1CC(C(=O)O)=NO1` (racemic), the IC50 in assay [1] and in assay [2] was greater than 100 µM each time. This molecule also registered a Ki at Glutamate NMDA receptor of 34 µM.
Take `N[C@]1(C(=O)O)C[C@H]1[C@H]1CC(O)=NO1` (racemic): the IC50 in assay [1] and in assay [2] was greater than 100 µM throughout. Also, the inhibitory constant (Ki) at Glutamate NMDA receptor was greater than 100 µM.
Regarding `N[C@H](C[C@@H]1CC(C(=O)O)=NO1)C(=O)O` (racemic), the IC50 in assay [1] and in assay [2] was greater than 100 µM each time.
For the molecule `N[C@]1(C(=O)O)C[C@H]1[C@@H]1CC(O)=NO1` (racemic), the IC50 in assay [1] and in assay [2] was greater than 100 µM each time. The molecule further displayed a Ki on Glutamate NMDA receptor of 13 µM.
